Results reported in publication PMC6278537, “Simultaneous Determination and Pharmacokinetics Study of Six Triterpenes in Rat Plasma by UHPLC-MS/MS after Oral Administration of Sanguisorba officinalis L. Extract” (Molecules, 2018).
Like-named read-outs stand apart in the source and are kept apart here.

What was measured:
[1] = Pharmacokinetic study in rats after single oral administration of S. officinalis extract (UHPLC-MS/MS of plasma); type: in vivo, Sprague-Dawley rats; conditions: for Cmax / AUC(0-inf) / AUC(0-t) / Tmax / half-life: rat plasma, single oral dose of S. officinalis extract 0.015 g/kg, n = 12, mean ± SD; for time of first peak of mean plasma concentration-time curve (double-peak phenomenon) / time of second peak of mean plasma concentration-time curve (double-peak phenomenon): rats, after oral administration of S. officinalis extract, Figure 4
Description: The UHPLC-MS/MS method was successfully used in the pharmacokinetic studies of six analytes after single dose administration of S. officinalis extract in rats. Based on the body surface area calculations of people and the animals and equivalent dose conversion calculations, the dosage of the rats was 0.015 g/kg. The half-time (t1/2), maximum plasma concentration (Cmax), time to reach Cmax (Tmax), and area under concentration–time curve (AUC0→t and AUC0→∞) were calculated via non-compartmental analysis (Table 6). The pharmacokinetic parameters of six components were reckoned by means of non-compartmental analysis using DAS 2.0 (Shanghai, China).
The experimental protocol was permitted by the Animal Ethics Committee of Harbin Medical University and conformed to the principles for the Care and Use of Laboratory Animals. Twelve male Sprague-Dawley rats (Weight 200 ± 20 g) were provided by the Laboratory Animal Centre of Harbin Medical University (Harbin, China). Each rat was fasted for 12 h before giving the drug and had free water supply even during the experiment. The S. officinalis extract was dissolved in water. A single dose of the S. officinalis extract (0.015 g/kg) was administrated to the rats. Blood (0.3 mL) was gained from the retinal venous plexus at 0, 0.083, 0.25, 0.5 1.0, 1.5, 2.0, 3.0, 4.0, 6.0, 8.0, 12.0 and 24.0 h after dosing. The plasma was immediately separated by centrifugation at 12000 rpm for 5 min at […].
Ten microliters of IS (1040.0 ng/mL) solution and 100 μL of methanol were added to 100 μL aliquot of plasma sample and vortexed for 30 s. The mixture was extracted with 3 mL ethyl acetate by being vortex-mixed for 1 min. The supernatant was separated and evaporated to dryness by N2 blowing at 40 °C after centrifuging at 3800 rpm for 5 min. The residue was reconstituted with 100 μL of methanol, and then vortex-mixed for 2 min and filtered by a 0.22 μm nylon 66 organic membrane. This was followed by injection of 5 μL aliquot of the solution into the UHPLC-MS/MS system (Agilent Technologies, Santa Clara, CA, USA).
The maximum concentration (Cmax) and the time to attain it (Tmax) were observed directly from the measured data. The elimination rate constant (Ke) was calculated by linear regression of the terminal points in a semi-log plot of the plasma concentration against time. The elimination half-life (t1/2) was calculated using the formula t1/2 = 0.693/Ke. The area under plasma concentration–time curve (AUC0→t) to the last measurable plasma concentration (Ct) was estimated by using the linear trapezoidal rule. The area under the plasma concentration–time curve to time infinity (AUC0→∞) was calculated as: AUC0→∞ = AUC0→t + Ct/Ke. The pharmacokinetic parameters of six analytes were reckoned by non-compartmental analysis using DAS 2.0 (Mathematical Pharmacology Professional Committee of China, Shanghai, China).

[2] = Stability of analytes in rat plasma under various storage conditions; type: in vitro ADME; conditions: for Stability Post-Preparation: 12 h after sample preparation at 4 °C; for Stability Short-Term / Stability Long-Term / Stability Three Freeze-Thaw: rat plasma; for Stability Short-Term: room temperature 4 h; for Stability Long-Term: storage for 2 weeks; for Stability Three Freeze-Thaw: three freeze–thaw cycles at −20 °C
Description: The stability of six analytes in rat plasma was estimated under different storage conditions. […] Post-preparative stability of analytes also implied that there was no obvious degradation when samples were kept at 4 °C for 12 h. In addition, all compounds remained stable for two weeks at […].
The stability of six compounds in rat plasma including freeze and thaw stability (three freeze–thaw cycles at −20 °C), long-term stability (storage for 2 weeks at −80 °C), room temperature stability (storage for 4 h at ambient temperature), and post-preparation stability […] All stability testing QC samples were determined by using the calibration curve of freshly prepared standard samples.

[3] = male, Sprague-Dawley, rat, plasma, po, 0.015 g/kg, read-out: Cmax

Cmax [1, 3] [ng/mL] | AUC(0-inf) ([1]; male, Sprague-Dawley) [ng·h/mL] | AUC(0-t) ([1]; male, Sprague-Dawley) [ng·h/mL] | Tmax ([1]; male, Sprague-Dawley) [h] | half-life ([1]; male, Sprague-Dawley) [h] | Cmax [1] [ng/mL] | time of first peak of mean plasma concentration-time curve (double-peak phenomenon) [1] [h] | time of second peak of mean plasma concentration-time curve (double-peak phenomenon) [1] [h] | Stability Post-Preparation ([2]; high QC spiked concentration) [% RE] | Stability Post-Preparation ([2]; low QC spiked concentration) [% RE] | Stability Post-Preparation ([2]; medium QC spiked concentration) [% RE] | Stability Short-Term ([2]; high QC spiked concentration) [% RE] | Stability Short-Term ([2]; low QC spiked concentration) [% RE] | Stability Short-Term ([2]; medium QC spiked concentration) [% RE] | Stability Long-Term ([2]; high QC spiked concentration) [% RE] | Stability Long-Term ([2]; low QC spiked concentration) [% RE] | Stability Long-Term ([2]; medium QC spiked concentration) [% RE] | Stability Three Freeze-Thaw ([2]; high QC spiked concentration) [% RE] | Stability Three Freeze-Thaw ([2]; low QC spiked concentration) [% RE] | Stability Three Freeze-Thaw ([2]; medium QC spiked concentration) [% RE] | SMILES
745 ± 85.7 | 3320 ± 429 | 2880 ± 303 | 0.92 ± 0.2 | 11.6 ± 3.07 | 744.7 ± 85.7 | 0.5 to 1.5 | 4 to 8 | −9.95 | −2.07 | 3.53 | 2.44 | 4.27 | 6.27 | 2.03 | 2.43 | −6.57 | 2.51 | 6.07 | 10.19 | C[C@@H]1CC[C@]2(C(=O)O[C@@H]3O[C@H](CO)[C@@H](O)[C@H](O)[C@H]3O)CC[C@]3(C)C(=CC[C@@H]4[C@@]5(C)CC[C@H](O[C@@H]6OC[C@H](O)[C@H](O)[C@H]6O)C(C)(C)[C@@H]5CC[C@]43C)[C@@H]2[C@]1(C)O [I, ziyuglycoside I]
527 ± 64 | 2660 ± 601 | 2300 ± 417 | 0.83 ± 0.26 | 8.99 ± 3.04 | 526.6 ± 64.0 | 0.5 to 1.5 | 4 to 8 | 3.04 | 5.22 | 4.11 | 2.47 | −5.94 | 4.60 | 2.24 | −3.19 | 2.08 | 2.74 | 2.66 | −2.95 | CC1CCC2(C(=O)OC3OC(CO)C(O)C(O)C3O)CCC3(C)C(=CCC4C5(C)CCC(O)C(C)(C)C5CCC43C)C2C1(C)O [II, 3β,19α-dihydroxyurs-12-en-28-oic-acid 28-β-D-glucopyranosyl ester]
318 ± 47.6 | 1230 ± 193 | 1140 ± 150 | 1.33 ± 0.26 | 6.86 ± 2.91 | 317.9 ± 47.6 | 0.25 | < 1.5 | 1.10 | −1.34 | −2.48 | −2.42 | −5.54 | −7.66 | 4.31 | 3.75 | −5.18 | −3.38 | −7.72 | −5.29 | CC1=C2C3=CCC4C5(C)CCC(OC6OCC(O)C(O)C6O)C(C)(C)C5CCC4(C)C3(C)CCC2(C(=O)OC2OC(CO)C(O)C(O)C2O)CCC1C [III, 3β-[(α-L-arabinopyranosyl)oxy]-urs-12,18(19)-dien-28-oic acid β-D-glucopyranosyl ester]
315 ± 22.5 | 1300 ± 193 | 1210 ± 120 | 1.58 ± 0.2 | 7.32 ± 2.74 | 314.5 ± 22.5 | – | – | 3.95 | 7.45 | 2.23 | 4.55 | 9.63 | 7.81 | −6.75 | 4.88 | 2.71 | 2.07 | 6.80 | 3.84 | C[C@@H]1CC[C@]2(C(=O)O[C@@H]3O[C@H](CO)[C@@H](O)[C@H](O)[C@H]3O)CC[C@]3(C)C(=CC[C@@H]4[C@@]5(C)C[C@@H](O)[C@H](O)C(C)(C)[C@@H]5CC[C@]43C)[C@@H]2[C@]1(C)O [IV, rosamultin]
212 ± 11.8 | 794 ± 152 | 733 ± 94.1 | 0.58 ± 0.2 | 7.35 ± 3.95 | 211.5 ± 11.8 | – | – | −3.03 | 8.48 | 5.23 | 2.56 | −4.77 | −3.67 | 3.06 | 9.86 | 6.95 | 2.28 | −9.67 | 3.99 | CC1CCC2(C(=O)O)CCC3(C)C(=CCC4C5(C)C(O)C(O)C(O)C(C)(C)C5CCC43C)C2C1(C)O (stereo not drawn) [V, 1β-hydroxyeuscaphic acid]
243 ± 19.9 | 1110 ± 98.1 | 1030 ± 73.4 | 1.17 ± 0.26 | 7.72 ± 1.22 | 243.2 ± 19.9 | 0.5 to 1.5 | 4 to 8 | 4.85 | 3.18 | 9.78 | 3.26 | −10.78 | 2.34 | 5.28 | −2.07 | 2.79 | −1.64 | 2.74 | 6.61 | C=C1[C@H]2C3=CC[C@@H]4[C@@]5(C)C[C@@H](O)[C@@H](O)C(C)(C)[C@@H]5CC[C@@]4(C)[C@]3(C)CC[C@@]2(C(=O)O[C@@H]2O[C@H](CO)[C@@H](O)[C@H](O)[C@H]2O)CC[C@H]1C [VI, alpinoside]
